Molecules are shown by their SMILES. Marks after values point to notes of the source that are not given here.

The test system of one series is Puccinia recondita. Put plainly: In vivo preventive test on Puccinia recondita (brown rust on wheat). The following applies: for Efficacy: Table C2; for protection: in words, at a dose of 500 and 100 ppm of active ingredient, analogues 11 and 13 in very similar conditions. As to the method:
[table] […] The young plants of wheat are treated by spraying the active ingredient prepared as described above. […] After 24 hours, the plants are contaminated by spraying the leaves with an aqueous suspension of Puccinia recondita spores. The contaminated wheat plants are incubated for 24 hours at 20° C. and at 100% relative humidity and then for 10 days at 20° C. and at 70-80% relative humidity. The test is evaluated 11 days after the inoculation. 0% means an efficacy which corresponds to that of the control plants while an efficacy of 100% means that no disease is observed.

The nature of series [1]: log P by HPLC on reversed-phase column (C 18), EEC Directive 79/831 Annex V.A8. The format is physicochemical. The note with it: Table 1, HPLC, 0.1% aqueous formic acid and acetonitrile, 40° C. As to the method: In table 1, the log P values were determined in accordance with EEC Directive 79/831 Annex V.A8 by HPLC (High Performance Liquid Chromatography) on a reversed-phase column (C 18), using the method described below: Temperature: 40° C.; Mobile phases: 0.1% aqueous formic acid and acetonitrile; linear gradient from 10% acetonitrile to 90% acetonitrile. Calibration was carried out using unbranched alkan-2-ones (comprising 3 to 16 carbon atoms) with known log P values (determination of the log P values by the retention times using linear interpolation between two successive alkanones). lambda-max-values were determined using UV-spectra from 200 nm to 400 nm and the peak values of the chromatographic signals. In table 2, M+H (Apcl+) and log P are defined as for table 1.

Another series relates to Sphaerotheca fuliginea. The series is described as follows: In vivo preventive test on Sphaerotheca fuliginea (powdery mildew on cucurbits). The following applies: for Efficacy: Table F1; for protection: in words, at a dose of 500 and 100 ppm of active ingredient, analogue 13 in very similar conditions. As to the method:
[table] […] The young plants of gherkin are treated by spraying the active ingredient prepared as described above. […] After 24 hours, the plants are contaminated by spraying the leaves with an aqueous suspension of Sphaerotheca fuliginea spores. The contaminated gherkin plants are incubated for 72 hours at 18° C. and at 100% relative humidity and then for 12 days at 20° C. and at 70-80% relative humidity. The test is evaluated 15 days after the inoculation. 0% means an efficacy which corresponds to that of the control plants while an efficacy of 100% means that no disease is observed.

Another series concerns Uromyces appendiculatus. The series is described as follows: In vivo preventive test on Uromyces appendiculatus (bean rust). The following applies: for protection: in words, at a dose of 500 and 100 ppm of active ingredient. As to the method: [table] The active ingredients are made soluble and homogenized in a mixture of Dimethyl sulfoxide/Acetone//Tween® 80 and then diluted in water to the desired concentration. The young plants of bean are treated by spraying the active ingredient prepared as described above. Control plants are treated only with an aqueous solution of Acetone/Dimethyl sulfoxide/Tween® 80. After 24 hours, the plants are contaminated by spraying the leaves with an aqueous suspension of Uromyces appendiculatus spores. The contaminated bean plants are incubated for 24 hours at 20° C. and at 100% relative humidity and then for 10 days at 20° C. and at 70-80% relative humidity. The test is evaluated 11 days after the inoculation. 0% means an efficacy which corresponds to that of the control plants while an efficacy of 100% means that no disease is observed.

[2] abbreviates: second value of a mixture of two diastereoisomers.
Where [3] appears, read: single value, or first value of a mixture of two diastereoisomers.
Where [4] appears, read: dose 100 ppm, formulated in DMF with 2% of alkylarylpolyglycolether.
Setting [5] is: dose 500 ppm, formulated in DMF with 2% of alkylarylpolyglycolether.

With `Cn1nc(C(F)F)c(C(=O)N2CCCC2C2CCCc3ccccc32)c1F` (mixture of isomers) [I.26], the Efficacy in the series on Puccinia recondita (dose 100 ppm, wheat) turned out to be 88%; with Puccinia recondita (dose 500 ppm, wheat) it was 98%; with Sphaerotheca fuliginea (dose 100 ppm, gherkin), 100%; with Sphaerotheca fuliginea (dose 500 ppm, gherkin) it was 100%; with Uromyces appendiculatus (Table G1, dose 100 ppm) it was 100%; in the series with Uromyces appendiculatus (Table G1, dose 500 ppm) it was 100%. In addition, the Efficacy with Uromyces appendiculatus (Table G2, dose 100 ppm) worked out at 100%; with Uromyces appendiculatus (Table G2, dose 500 ppm), 100%. The protection result in the series with Puccinia recondita (wheat) is listed as “excellent (at least 90%) to high (at least 80%) protection”; with Sphaerotheca fuliginea (gherkin) it was “total protection”; with Uromyces appendiculatus it was “total protection”; in the series on Uromyces appendiculatus (listed as 1.26), “total to average (at least 50%) protection”. In addition, the lipophilicity (logP) in series [1] (setting [2]) stood at 3.61; in series [1] (setting [3]), 3.48.
Turning to `Cn1cc(C(=O)N2CCCC2C2CCCc3ccccc32)c(C(F)F)n1` (mixture of isomers) [I.27], the results for the logP in series [1] (setting [2]) and in series [1] (setting [3]) were 3.21 and 2.94, respectively. For the same compound, the Efficacy with Uromyces appendiculatus (Table G2, dose 100 ppm) was 56%; with Uromyces appendiculatus (Table G2, dose 500 ppm), 100%. For the same compound, the protection result in the series with Uromyces appendiculatus is on record as “total to average (at least 50%) protection”.
On to `CC(CN(C(=O)c1c(C(F)F)nn(C)c1F)C1CC1)c1ccccc1` (stereo not shown) [13 from WO-2011/151369, N-cyclopropyl-3-(difluoromethyl)-5-fluoro-1-methyl-N-(2-phenylpropyl)-1H-pyrazole-4-carboxamide, reference compound], for which the Efficacy is listed as 10 ^(a) % in the series with Puccinia recondita (setting [4]), 40 ^(a) % in the series on Puccinia recondita (setting [5]), 3 ^(a) % in the series on Sphaerotheca fuliginea (setting [4]) and 63 ^(a) % with Sphaerotheca fuliginea (setting [5]). Moreover, the values for the protection entry with Puccinia recondita (wheat) and with Sphaerotheca fuliginea (gherkin) were “poor (less than 40%) to no protection” and “average (at least 60%) to poor (less than 10%) protection”, respectively.
Turning to `CCC(c1ccccc1)C1CCCN1C(=O)c1c(C(F)F)nn(C)c1F` (stereo not shown) [53 from WO2012/052491, [3-(difluoromethyl)-5-fluoro-1-methyl-1H-pyrazol-4-yl][2-(1-phenylpropyl)pyrrolidin-1-yl]methanone, reference compound], the Efficacy with Uromyces appendiculatus (Table G1, dose 100 ppm) is given as 0%; with Uromyces appendiculatus (Table G1, dose 500 ppm), 77%. Also, the protection entry with Uromyces appendiculatus is “good (at least 70%) to no protection”.
As to `Cc1nn(C)c(F)c1C(=O)N(C1CC1)C(C)C1CCCc2ccccc21` (stereo not shown) [I.2 from WO-2010/086311, N-cyclopropyl-5-fluoro-1,3-dimethyl-N-[1-(1,2,3,4-tetrahydronaphthalen-1-yl)ethyl]-1H-pyrazole-4-carboxamide, reference compound], the Efficacy with Uromyces appendiculatus (Table G2, dose 100 ppm) came out at 0%; in the series with Uromyces appendiculatus (Table G2, dose 500 ppm), 88%. The protection entry in the series with Uromyces appendiculatus is “high (at least 80%) to no protection”.

Source of the values: patent US10626109B2, “N-hetaryl(thio)carbonyl-2-(benzocycloalken-1-yl)cyclamines and their use as fungicides” (BAYER CROPSCIENCE AKTIENGESELLSCHAFT, priority 2013, dated 2020).
